Source: patent publication US20210100905A1, “APPLICATION OF COMPOUND OR TRADITIONAL CHINESE MEDICINE EXTRACT IN PREPARATION OF NUCLEIC ACID DELIVERY AGENT, AND RELATED PRODUCTS” (INSTITUTE OF BASIC MEDICAL SCIENCES CHINESE ACADEMY OF …, priority 2018, published 2021)

Legend:
[1] = In vivo delivery of lipid nucleic acid mixture by gavage, RT-qPCR in blood and lung; set-up: species or system C57 mice; conditions: FIG. 14, 6 hours, whole blood and lung
Experimental: 1. Preparation of lipid nucleic acid mixture: the mixture of lipid No. 11 or No. 12 with nucleic acid, and the mixture of the lipid combination of No. 1/2/4/9/14/18/19/20/21/22/23/24/25/26/27/28/29/30/32, No. 3/8/10/11/12/13, and No. 6/15/16/17/31 with nucleic acid were prepared by reverse evaporation and boiling method (refer to steps 2.1-2.2).
2. Gavage were performed on 6-8 weeks old male C57 mice: 200 μl/aminal, grouped as follows:
3. Sample collection: 6 hours after gavage, mouse whole blood (500 μl) and lung (110 mg) were collected by 1.5 mL TRIzol-LS or 3 mL TRIzol, respectively, homogenized and then frozen under −80° C. for storage.
4. […]

[2] = tested on: Luciferase with the wild-type 3′UTR in the target gene; assay: Luciferase reporter with 3′UTR of target gene after lipid-mediated small RNA delivery; type: cell-based; conditions: FIG. 13; wild-type 3′UTR
[3] = as above; type: cell-based; conditions: FIG. 13; mutated 3′UTR
MRC-5 cells = assay: Western blot of fibronectin/α-SMA after lipid-mediated delivery of anti-fibrotic HJT-sRNA, TGF-β1 stimulation; type: cell-based; conditions: FIG. 102; nucleic acid 400 nM; TGF-β1 3 ng/mL, 72 hours
Experimental: (§1) 3.3 Western blot detection of protein expression levels 3.3.1 MRC-5 cell (pulmonary embryonic fibroblast), and A549 cell (human lung adenocarcinoma cell) were cultured to logarithmic growth phase, and then plated into 12-well plates at a cell density of 6×10^5/1 mL medium/well; MRC-5 cells were cultured in Eagle's MEM medium (MEM, Gibco); A549 cells were cultured in Ham's F-12 medium (HyClone); followed by incubation overnight at 37° C., and the follow-up experiments were performed after the cells were attached to the walls.
(§2) 4) Lipid nucleic acid mixture: the mixture of lipid and nucleic acid prepared from the step 2 were added into cells and mixed, and the final concentration of nucleic acid was 400 nM.
(§3) 3.3.3 After 24 hours of treatment, the cells were stimulated with the stimulant (1 μg/mL poly (I:C) (P1530, Sigma-Aldrich) as double-stranded RNA viruses mimetics) or 3 ng/mL transforming growth factor TGF(31 (Pepro Tech)). […]

[4] = In vivo intragastric delivery of small RNA with lipid No. 41, samples after 6 hours; set-up: species or system mice; conditions: each small RNA 1 nmol/animal
Experimental: [Experimental method] 6-8 weeks old mice, 22-24 g, were raised in SPF room of the Animal Center of the Institute of Basic Medical Sciences of Chinese Academy of Medical Sciences. The mice were fasted for 12 hours before intragastric administration. The mice were randomly divided into 3 groups: (1) control group, 400 μl DEPC-treated water, intragastric administration; (2) free uptake group, small RNA (PGY-sRNA-26, PGY-sRNA-32 and PGY-sRNA-23), each small RNA 1 nmol/animal, dissolved in 400 μl DEPC-treated water, intragastric administration; (3) lipid No. 41 group: a mixture of small RNA (PGY-sRNA-26 and PGY-sRNA-32) and lipid No. 41 prepared by heating method was intragastrically administered, each small RNA 1 nmol/animal, lipid No. 41 10 μl/animal, dissolved in 400 μl DEPC-treated water. All tissue and organ samples were collected after 6 hours of intragastric administration. All small RNAs were single-stranded RNA modified by 3p- terminal 2-O-methylation.

A549 cells = assay: Western blot of knockdown protein after lipid-mediated siRNA delivery; type: cell-based, human; conditions: FIG. 82; reverse evaporation method; LAMP2, XPN2, Ssu72, CPSF4 or β-actin siRNA 400 nM
Experimental: as §1, §2, §3

| SMILES | entry of HJT-sRNA-m7 into blood and lung [1] | relative expression level of Luciferase with wild-type 3′UTR [2] | action on Luciferase with mutated 3′UTR [3] | also measured |
| --- | --- | --- | --- | --- |
| CCCCC/C=C\C/C=C\CCCCCCCC(=O)O[C@H](COC(=O)CCCCCCCCCCCCCCCCC)COP(=O)([O-])OCC[N+](C)(C)C [No. 11, trimethyl(2-{[(2R)-2-[(9Z, 12Z)-octadeca-9,12-dienoyloxy]-3-(octadecanoyloxy)propyl-phosphonato]oxy}ethyl) azanium] | could promote entry of small fragments of nucleic acids into the blood and lung | reduced the relative expression level of the Luciferase with the wild-type 3′UTR in the target gene | did not act on the mutated 3′UTR of their target genes | – |
| CCCCC/C=C\C/C=C\CCCCCCCC(=O)O[C@H](COC(=O)CCCCCCCCCCCCCCC)COP(=O)([O-])OCC[N+](C)(C)C [No. 12, (2-{[(2R)-3-(hexadecanoyloxy)-2-[(9Z,12Z)-octadeca-9,12-dienoyloxy]propylphosphonato]oxy}ethyl) trimethylazanium] | could promote entry of small fragments of nucleic acids into the blood and lung | reduced the relative expression level of the Luciferase with the wild-type 3′UTR in the target gene | did not act on the mutated 3′UTR of their target genes | – |
| CCCCCCCC/C=C\CCCCCCCCCCCC(=O)O[C@H](COC(=O)CCCCCCCCCCCCCCC)COP(=O)(O)OCCN [No. 40, (2-aminoethoxy) [(2R)-2-[(13Z)-docos-13-enoyloxy]-3-(hexadecanoyloxy)propoxy] phosphinic acid] | – | – | – | fibronectin protein expression after delivery of double-stranded HJT-sRNA-m7 (Western blot) (MRC-5 cells): mediated anti-fibrotic double-stranded RNA HJT-sRNA-m7 entry into MRC-5 cells to down-regulate fibronectin protein expression |
| CCCCCCCCCCCCCCCCCCC[C@@H](O)[C@@H](N)CO [No. 41, Sphinganine (d22:0)] | – | – | – | entry of small RNA into the blood ([4]; FIG. 108, lipid 10 μl/animal): could promote the entry of small RNA into the blood, protecting it from degradation in the blood; entry of small RNA into the stomach cells ([4]; FIG. 109, lipid 10 μl/animal): could promote the entry of small RNA into the stomach cells, protecting it from degradation in the stomach; entry of small RNA into small intestinal cells ([4]; FIG. 110, lipid 10 μl/animal): could promote the entry of small RNA into small intestinal cells, protecting it from degradation in the small intestine; entry of small RNA into the liver ([4]; FIG. 111, lipid 10 μl/animal): could promote the entry of small RNA into the liver, protecting it from degradation in the liver; protein knockdown effect of delivered siRNA vs RNAiMAX (Western blot) (A549 cells): significantly higher than the inhibitory effect of HJT-sRNA-m7 mediated by RNAiMAX |
